Our source for the Km values is paper PMC12470104, “The Achilles Heel of Protein Biochemistry: Insolubility of Recombinant Proteins—A Case Study About Producing a Rice Enzyme” (International Journal of Molecular Sciences, 2025).

The test system of the assay is T1, OsAPSE.
T1 construct: GH27 42-387, ricin-B-like 498-563, GH-all-beta 563-649; catalytic D226, D282
The assay is described as follows: discontinuous pNP release assay, A405; Hanes-Woolf and Eadie-Hofstee. To be noted: 50 mM Tris-HCl pH 8, 25 °C; 50 µg/mL enzyme; protein refolded from inclusion bodies (authors suspect suboptimal folding); 1-20 mM substrate, Km extrapolated above tested range. The class given is biochemical, Oryza sativa subsp. japonica.

The Km is the substrate concentration at which the rate is half of its maximum. For `O=[N+]([O-])c1ccc(O[C@H]2O[C@H](CO)[C@H](O)[C@H](O)[C@H]2O)cc1` [pNP-α-D-Galp], the Michaelis-Menten constant (Km) is 44 mM.
